Read-outs that look alike come from different tables or passages of the source. Where only a bound is given, the exact number is not on record here.

We go through ten molecules from publication PMC9518259, “Design and synthesis of benzothiazole-based SLC-0111 analogues as new inhibitors for the cancer-associated carbonic anhydrase isoforms IX and XII” (Journal of Enzyme Inhibition and Medicinal Chemistry, 2022).

One experiment addresses T1, hCA XII (Homo sapiens, UniProt O43570).
T1 construct: gene CA12
Kind of experiment: stopped-flow CO2 hydrase assay. Format: biochemical.

The target in a further experiment is T2, hCA II (Homo sapiens, UniProt P00918).
T2 construct: gene CA2
Nature of the experiment: stopped-flow CO2 hydrase assay. Format: biochemical. An excerpt: stopped-flow CO2 hydrase assay on hCA II

Another experiment deals with T3, hCA IX (Homo sapiens, UniProt Q16790).
T3 construct: gene CA9
Kind of experiment: stopped-flow CO2 hydrase assay. It counts as biochemical.

Another experiment has as its target T4, hCA I (Homo sapiens, UniProt P00915).
T4 construct: gene CA1
Nature of the experiment: stopped-flow CO2 hydrase assay. Format: biochemical. From the text: stopped-flow CO2 hydrase assay on hCA I

A short description of experiment [1]: stopped-flow CO2 hydrase assay. It counts as biochemical, Homo sapiens. Particulars: read-out: KI (nM)^a / hCA I.
Experiment [2] is described as follows: stopped-flow CO2 hydrase assay. Conditions: read-out: KI (nM)^a / hCA I. It counts as biochemical, Homo sapiens. This is another data set of the same source.

T4 sequence (P00915 2-261): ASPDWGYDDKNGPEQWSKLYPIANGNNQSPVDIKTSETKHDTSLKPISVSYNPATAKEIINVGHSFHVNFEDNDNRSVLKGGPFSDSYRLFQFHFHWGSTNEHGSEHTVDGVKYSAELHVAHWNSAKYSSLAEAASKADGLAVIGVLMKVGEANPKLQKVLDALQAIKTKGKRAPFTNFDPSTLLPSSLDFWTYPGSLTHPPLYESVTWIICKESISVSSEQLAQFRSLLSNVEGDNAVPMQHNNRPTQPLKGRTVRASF
T1 sequence (O43570 25-354): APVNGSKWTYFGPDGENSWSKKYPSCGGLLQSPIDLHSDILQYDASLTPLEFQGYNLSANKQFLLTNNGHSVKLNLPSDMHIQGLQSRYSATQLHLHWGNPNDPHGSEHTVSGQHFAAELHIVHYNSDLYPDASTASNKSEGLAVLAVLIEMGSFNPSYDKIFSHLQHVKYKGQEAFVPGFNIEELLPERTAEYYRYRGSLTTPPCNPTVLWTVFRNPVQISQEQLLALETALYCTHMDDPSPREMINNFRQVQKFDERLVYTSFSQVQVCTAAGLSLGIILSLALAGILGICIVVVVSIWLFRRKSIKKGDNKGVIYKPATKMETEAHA

For the molecule `NS(=O)(=O)c1ccccc1NC(=O)Nc1nc2ccccc2s1` [8a], the Ki amounted to 41.2 nM on hCA XII, 785 nM at hCA II, 65.3 nM on hCA IX (read-out: KI (nM)^a / hCA IX) and 12600 nM at hCA I.

For the molecule `NS(=O)(=O)c1cccc(NC(=O)Nc2nc3ccccc3s2)c1` [8b], the Ki was found to be 57.5 nM at hCA XII, 653 nM at hCA II, 48.9 nM on hCA IX (read-out: KI (nM)^a / hCA IX) and 4040 nM at hCA I.

On to `NS(=O)(=O)c1ccc(NC(=O)Nc2nc3ccccc3s2)cc1` [8c], for which the Ki amounted to 29.3 nM on hCA XII, 54.1 nM at hCA II, 31.5 nM on hCA IX (read-out: KI (nM)^a / hCA IX) and 362 nM on hCA I.

For `O=C(Nc1nc2ccccc2s1)Nc1ccccc1C(=O)O` [14a], the Ki on hCA XII was 39900 nM; on hCA II it was 75900 nM; on hCA IX (read-out: KI (nM)^a / hCA IX), 44600 nM; on hCA I it was 68100 nM.

With `O=C(Nc1cccc(C(=O)O)c1)Nc1nc2ccccc2s1` [14b], the Ki on hCA XII was 9140 nM; on hCA II, 94100 nM; at hCA IX (read-out: KI (nM)^a / hCA IX), 16300 nM; at hCA I, 82800 nM.

For the molecule `O=C(Nc1ccc(C(=O)O)cc1)Nc1nc2ccccc2s1` [14c], the Ki at hCA XII was 8540 nM; at hCA II, 9470 nM; at hCA IX (read-out: KI (nM)^a / hCA IX) it was 2410 nM; on hCA I, 11800 nM.

For `O=C(Nc1ccc(S(=O)(=O)Nc2nccs2)cc1)Nc1nc2ccccc2s1` [16a], the Ki at hCA XII is 32500 nM; at hCA IX (read-out: KI (nM)^a / hCA IX), 56100 nM; in experiment [1], more than 100000 nM; at hCA I it was more than 100000 nM.

As to `Cc1noc(NS(=O)(=O)c2ccc(NC(=O)Nc3nc4ccccc4s3)cc2)c1C` [16b], the Ki (in experiment [2]; at hCA IX (read-out: KI (nM)^a / hCA I); in experiment [1]; at hCA I) was more than 100000 nM throughout.

Consider `NS(=O)(=O)c1ccc(CNC(=O)Nc2nc3ccccc3s2)cc1` [compound 10, 10], for which the Ki at hCA XII was 51.2 nM; at hCA II it was 204 nM; on hCA IX (read-out: KI (nM)^a / hCA IX) it was 58.8 nM; at hCA I, 946 nM.

On to `NS(=O)(=O)c1ccc(CCNC(=O)Nc2nc3ccccc3s2)cc1` [compound 12, 12], for which the Ki on hCA XII is 34.7 nM; on hCA II it was 28.5 nM; on hCA IX (read-out: KI (nM)^a / hCA IX) it was 16.4 nM; at hCA I, 61.5 nM.
